Results published in patent US20250002969A1, “DISCRIMINATION OF ANTIBIOTIC RESISTANT AND SENSITIVE SAMPLES” (priority 2021, published 2025).

Key:
[1] = system: Staph. aureus clinical isolates; test: PAFC cell count of clinical isolates in presence of daptomycin, dyed SP1 phage label; format: cell-based
Experimental: All strains were tested in the presence and absence of daptomycin. In a number of studies hereof, cultures were diluted into fresh media and regrown for 2 hours in the presence and absence of […] of daptomycin. Each sample was then incubated at room temperature for 10 minutes with multiple dyed phage per bacterial cell. Incubated samples were then processed through PAFC system 100 and number of detected cells recorded. Isolates were tested in triplicated for both the plate reader and PAFC system.
(§1) Sample preparation. Clinical isolates of Staph. aureus were obtained from the Urisch laboratory at the UPMC Department of Othopaedic Surgery. Isolates were de-identified according to IRB protocol and were stored in 50% glycerol solution at −80° C. Isolates were streaked for single colonies on mannitol salt agar (MSA) plates and cultures were grown in mannitol salt broth, shaking at 36.5° C. Overnight cultures were then diluted into fresh media and regrown for 2 hours to ensure that bacteria were entering exponential growth phase. Exponentially growing cultures were mixed with media or daptomycin in a 1:1 ratio. Daptomycin was added to 0.5 ml of culture to a final concentration of 0.25 μg/ml. Identical cultures were used in all experiments using PAFC and BioTek HI plate reader. For photoacoustic testing, bacteriophage SP1 was added to a concentration of 1000 phage per bacterial cell. Growth curves were performed for 16 hours with measurements taken once every minute.
Photoacoustic Flow Cytometry. […] Laser beam energy was maintained and measured between 1.9 and 2.1/mJ for all PAFC experiments. […] The laser beam was assumed Gaussian in shape and fluence was calculated to be 0.014 mJ/cm^2 and detection volume was determined to be 0.04 μL.
All strains were tested in the presence and absence of daptomycin. […] Incubated samples were then processed through the PAFC system and number of detected cells recorded. Isolates were tested in triplicate for both the plate reader and PAFC system.

MRSA = conditions: cited from earlier work
VRSA = conditions: cited from earlier work
[2] = system: Staph. aureus clinical isolates; test: Growth curves (optical density) of clinical isolates in presence of daptomycin; format: cell-based
Experimental: Growth curves of multiple clinical isolates of the representative bacteria S. aureus as illustrated in FIGS. 4A through 4D were determined using a BioTek Synergy HI plate reader (available from BioTek Instruments (of Agilent Technologies), Winooski, Vermont). S. aureus isolates growth rates were tested in the presence and absence of the representative antibiotic daptomycin. Differential growth rates were identifiable after two hours of the sixteen-hour growth curve. Two-hour differentiation was confirmed by Newton-Raphson root finding method.
as §1
Treated and control cultures were placed in a round bottom 96 well culture plate (Falcon microtest 96 well plate 35077, ThermoFisher, Waltham, Massachusetts) and were placed into the BioTek HI plate reader. Optical density (OD) measurements were taken every minute at 600 nm wavelength. Between measurements, the plate was shaken at 100 rpm and maintained at 36.5+C allowing for bacterial growth. The two-hour time point was determined to be sufficient to differentiate the growth rates. Additionally, multiple replicates of each bacterial strain were grown at 36.5° C. in the BioTek HI plate reader and 100 μL was removed and plated on MSA plates every 10 minutes. Growth curves were made directly from these titers for each strain to give a quantifiable number of bacterial cells for each OD.

[3] = system: S. aureus clinical isolates; test: Photoacoustic flow cytometry (PAFC) detections of clinical isolates incubated with oxacillin; format: cell-based, Staphylococcus aureus; conditions: for Treated Detections: oxacillin 1 μmg/ml, 2 hours
Experimental: In a representative study, total of thirteen samples were tested for the mecA gene using PCR, thus determining their methicillin resistance before photoacoustic testing. Streaks of each S. aureus strain were grown on mannitol salt agar plates. Single colonies from each streak plate were used to regrow strains in mannitol salt broth for 2 hours in a shaking water bath at 36.5 C. That period ensured cells were growing and entering exponential growth phase. Oxacillin was added at a final concentration of 1 μmg/ml to half of each culture and grown for an additional 2 hours. Before processing through PAFC system, 100 μl from each culture was removed and used for growth analysis in an HI plate reader (available from Biotek of Winooski, Vermont). Growth curves were made for each culture by taking the optical density of each treated and untreated culture every minute over a 16-hour period. As described above, it was determined that two hours of antibiotic treatment was sufficient to determine differential growth rates from prior experimentation. Prior to performing photoacoustic testing, treated and untreated samples were incubated side-by-side for two hours. Photoacoustic testing of treated and untreated samples for each isolate were alternated, so that both samples were tested within twenty minutes to allow for similar growth times. Thus, total bacteria number could be compared properly.
To interpret the photoacoustic data provided by the flow cytometer, k-means clustering was used to guide the differentiation between methicillin resistant and susceptible samples. […] K-means, like other clustering methods, takes data points in a space of one or more dimensions and determines natural groupings of those points by proximity. Given a number of clusters, k, the algorithm separates all points into that number of groups. In a representative study, there was an interest in identifying only resistant and susceptible groups. Thus, k=2 was chosen.
The ratio of treated detection numbers over untreated numbers was determined, resulting in 13 numbers which were approximately in the range of 0 to 1. Lower numbers indicate that oxacillin was effective in decreasing the S. aureus population. However, there was no ad hoc threshold for determining antibiotic resistance. K-means with two clusters was applied to the data set using the MATLAB programming language (available from Math Works of Natick, Massachusetts). The MATLAB function, kmeans, uses Lloyd's algorithm. For simplicity, Euclidean distance was used for measuring and establishing iterative clusters.
Because the sample size was relatively small and the distribution was not obviously Gaussian, a nonparametric test was performed to compare the means of the bacterial counts before and after treatment with oxacillin. Using a Wilcoxon matched pairs signed rank test, a p-value of 0.0007 was calculated.
Photoacoustic Flow Cytometry. A 1000 μm optical fiber with numerical aperture of 0.39 (Thorlabs, Newton, New Jersey) was used to deliver laser light at 532 nm with a 5 ns pulse duration from a Nd:YAG laser (Litron Nano, Boseman, Montana). Laser beam energy was maintained and measured between 1.9 and 2.1/mJ for all PAFC experiments. The optical fiber was placed 5 mm away from a quartz tube (Quartz 10 QZ, Charles Supper, Natick, Massachusetts) with 10 μm thick walls. Samples were pumped through the quartz tube inside a 3D printed flow chamber. The laser beam was assumed Gaussian in shape and fluence was calculated to be 0.014 mJ/cm^2 and detection volume was determined to be 0.04 μL.

CCCCCCCCCC(=O)N[C@@H](Cc1c[nH]c2ccccc12)C(=O)N[C@H](CC(N)=O)C(=O)N[C@@H](CC(=O)O)C(=O)N[C@@H]1C(=O)NCC(=O)N[C@@H](CCCN)C(=O)N[C@@H](CC(=O)O)C(=O)N[C@H](C)C(=O)N[C@@H](CC(=O)O)C(=O)NCC(=O)N[C@H](CO)C(=O)N[C@@H]([C@H](C)CC(=O)O)C(=O)N[C@@H](CC(=O)c2ccccc2N)C(=O)O[C@@H]1C [daptomycin]
cells detected by PAFC, treated vs untreated ([1]; heterogeneous resistant strains): intermediary number of cells detected | cells detected by PAFC, treated vs untreated ([1]; homogeneous resistant strains): identical or nearly identical numbers of cells | cell count via photoacoustic detection ([1]; susceptible clinical isolate, FIG. 4A, two-hour timepoint): zero detection | MIC (MRSA): 0.25 to 1 µg/mL | MIC (VRSA): > 4 µg/mL | growth (optical density) treated vs untreated ([2]; heterogeneous strain A, FIG. 4C): delay of exponential growth | growth (optical density) treated vs untreated ([2]; heterogeneous strain B, FIG. 4D): no delay in initial growth is observed but severe retardation of growth starting at 1.5 hours | growth (optical density) treated vs untreated ([2]; resistant clinical isolate, FIG. 4B, 2 h and 16 h): no delay or inhibition of growth | growth (optical density) treated vs untreated ([2]; susceptible clinical isolate, FIG. 4A, 2 h and 16 h): complete inhibition of growth

Cc1onc(-c2ccccc2)c1C(=O)N[C@@H]1C(=O)N2[C@@H]1SC(C)(C)[C@@H]2C(=O)O [oxacillin]
Treated Detections ([3]; isolate B1899 (mecA Yes)): 404 | Treated Detections ([3]; isolate K3237 (mecA No)): 44 | Treated Detections ([3]; isolate K3251 (mecA No)): 7 | Treated Detections ([3]; isolate K3255 (mecA No)): 53 | Treated Detections ([3]; isolate K3261 (mecA Yes)): 135 | Treated Detections ([3]; isolate K3262 (mecA No)): 10 | Treated Detections ([3]; isolate K3266 (mecA No)): 18 | Treated Detections ([3]; isolate K3268 (mecA Yes)): 110 | Treated Detections ([3]; isolate K3270 (mecA Yes)): 134 | Treated Detections ([3]; isolate K3279 (mecA Yes)): 175 | Treated Detections ([3]; isolate K3280 (mecA Yes)): 179 | Treated Detections ([3]; isolate K3282 (mecA Yes)): 689 | Treated Detections ([3]; isolate K3287 (mecA No)): 2 | mean ratio of treated to untreated ([3]; second subgroup, markedly different growth): 0.10 | mean ratio of treated to untreated ([3]; subgroup with similar growth rates (isolates with mecA gene)): 0.87
